Here are results for 14 compounds from PubChem BioAssay (NCI).

Test systems include ACHN renal; 786-0 renal; SK-MEL-28 melanoma; OVCAR-5 ovarian; NCI-H23 lung; SNB-19 CNS; K-562 leukemia; HOP-92 NSCLC; RXF 393 renal; SF-268 CNS.
What all share (test): inhibition of tumour cell growth, NCI panel, 48 h

Structures are written as SMILES.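 Tested at 5 concentrations; 48 h exposure; 96-well plates; endpoints linearly interpolated, else capped at highest concentration. Definition used: TGI = concentration required for complete inhibition of growth.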 A value given as a limit tells only on which side of the number the result lay.

Regarding `CC(=O)OC[C@H]1O[C@@H](O[C@H]2[C@H](OC(C)=O)C=CO[C@@H]2COC(C)=O)C(OC(C)=O)[C@H]2OC(C)(C)O[C@H]21` (stereo not given in full), the TGI with ACHN renal, with 786-0 renal, in the experiment with SK-MEL-28 melanoma, in the experiment with OVCAR-5 ovarian, in the experiment with NCI-H23 lung and with SNB-19 CNS was above 100 µM each time. For the same compound, the TGI in the experiment with K-562 leukemia, in the experiment with HOP-92 NSCLC, in the experiment with RXF 393 renal and in the experiment on SF-268 CNS was above 100 µM in each case.
For `CC(=O)NNc1nc(C)c(C(/C=C/c2ccc3c(c2)OCO3)=N/Nc2ccccc2)s1`, the TGI in the experiment on ACHN renal, with 786-0 renal, in the experiment on SK-MEL-28 melanoma, with OVCAR-5 ovarian, in the experiment on NCI-H23 lung and with SNB-19 CNS was above 100 µM each time. Moreover, the TGI with K-562 leukemia, in the experiment with HOP-92 NSCLC, in the experiment on RXF 393 renal and in the experiment with SF-268 CNS was above 100 µM each time.
`COC(=O)Cc1ccc2c(c1)Sc1ccc(CC(=O)OC)cc1N2C`: the TGI is above 100 µM in the experiment with ACHN renal; above 100 µM in the experiment with 786-0 renal; above 100 µM in the experiment on SK-MEL-28 melanoma; above 100 µM in the experiment with OVCAR-5 ovarian; above 77.9 µM in the experiment on NCI-H23 lung; above 100 µM in the experiment on SNB-19 CNS. Also, the TGI with K-562 leukemia, in the experiment with HOP-92 NSCLC, in the experiment with RXF 393 renal and in the experiment on SF-268 CNS was above 100 µM each time.
In the case of `COc1ccc(N(C(=O)Nc2ccc(Cl)c(Cl)c2)c2ccccc2)cc1`, the TGI with ACHN renal, in the experiment with 786-0 renal, in the experiment on SK-MEL-28 melanoma, in the experiment with OVCAR-5 ovarian, in the experiment on NCI-H23 lung and in the experiment with SNB-19 CNS was above 10 µM in each case. Also, the TGI in the experiment with K-562 leukemia, in the experiment with HOP-92 NSCLC, in the experiment with RXF 393 renal and in the experiment on SF-268 CNS was above 10 µM in each case.
For the compound `Oc1ccc(/C=C\c2nnc(/C=C\c3ccc(O)c(O)c3)s2)cc1O`, the TGI is 15.2 µM in the experiment with ACHN renal; 38.6 µM in the experiment with 786-0 renal; 25.2 µM in the experiment on SK-MEL-28 melanoma; above 86.5 µM in the experiment on OVCAR-5 ovarian; 17.7 µM with NCI-H23 lung; 23.2 µM in the experiment on SNB-19 CNS. For the same compound, the TGI is above 27.9 µM in the experiment on K-562 leukemia, 29.6 µM in the experiment on HOP-92 NSCLC, 18.5 µM in the experiment on RXF 393 renal and 14.8 µM with SF-268 CNS.
For `O=C(Nc1sccc1S(=O)(=O)c1ccccc1)c1cccnc1`, the TGI in the experiment on ACHN renal is above 100 µM; with 786-0 renal, above 100 µM; in the experiment with SK-MEL-28 melanoma, above 100 µM; with OVCAR-5 ovarian it was above 100 µM; with NCI-H23 lung it was above 80.2 µM; in the experiment on SNB-19 CNS, above 100 µM. Also, the TGI with K-562 leukemia, in the experiment with HOP-92 NSCLC, in the experiment with RXF 393 renal and with SF-268 CNS was above 100 µM in each case.
`Cn1c(=O)c2c(nc(NCCCCl)n2CC(=O)O)n(C)c1=O`: the TGI in the experiment on ACHN renal, in the experiment on 786-0 renal, in the experiment on SK-MEL-28 melanoma, in the experiment on OVCAR-5 ovarian, in the experiment on NCI-H23 lung and in the experiment on SNB-19 CNS was above 100 µM throughout. Besides, the TGI in the experiment on K-562 leukemia, in the experiment on HOP-92 NSCLC, in the experiment on RXF 393 renal and with SF-268 CNS was above 100 µM throughout.
For `NCCC(N)C(=O)O` (stereo not given), the TGI in the experiment with ACHN renal, with 786-0 renal, with SK-MEL-28 melanoma, in the experiment on OVCAR-5 ovarian, with NCI-H23 lung and in the experiment with SNB-19 CNS was above 100 µM throughout. Further, the TGI with K-562 leukemia, in the experiment on HOP-92 NSCLC, with RXF 393 renal and in the experiment on SF-268 CNS was above 100 µM in each case.
As to `CC(C)(CN)CN`, the TGI with ACHN renal, with 786-0 renal, in the experiment with SK-MEL-28 melanoma, in the experiment on OVCAR-5 ovarian, in the experiment with NCI-H23 lung and in the experiment on SNB-19 CNS was above 100 µM each time. Further, the TGI with K-562 leukemia, with HOP-92 NSCLC, with RXF 393 renal and with SF-268 CNS was above 100 µM each time.
`Cc1ccc(C)n2c1nc1ccc3ccccc3c12`: the TGI in the experiment on ACHN renal, in the experiment on 786-0 renal, in the experiment on SK-MEL-28 melanoma, in the experiment on OVCAR-5 ovarian, in the experiment on NCI-H23 lung and with SNB-19 CNS was above 100 µM in each case. The TGI in the experiment with K-562 leukemia, in the experiment on HOP-92 NSCLC, in the experiment with RXF 393 renal and in the experiment with SF-268 CNS was above 100 µM each time.
`COc1ccc(N2C=Nn3c(nc4sc(C)c(C)c4c3=O)C2)cc1`: the TGI in the experiment with ACHN renal, in the experiment on 786-0 renal, in the experiment on SK-MEL-28 melanoma, in the experiment with OVCAR-5 ovarian, with NCI-H23 lung and in the experiment on SNB-19 CNS was above 100 µM each time. The TGI in the experiment on K-562 leukemia, in the experiment with HOP-92 NSCLC, with RXF 393 renal and in the experiment on SF-268 CNS was above 100 µM throughout.
For the compound `COC(=O)/C=C/c1ccccc1N=[S@](C)(=O)c1ccc(C)cc1`, the TGI with ACHN renal, in the experiment on 786-0 renal, in the experiment on SK-MEL-28 melanoma, in the experiment with OVCAR-5 ovarian, in the experiment with NCI-H23 lung and in the experiment with SNB-19 CNS was above 100 µM each time. The TGI in the experiment with K-562 leukemia is above 100 µM; with HOP-92 NSCLC it was above 100 µM; in the experiment with RXF 393 renal, 37.1 µM; with SF-268 CNS it was above 100 µM.
For the compound `CC1(C)OC2OC(COC(=O)C=[N+]=[N-])C3OC(C)(C)OC3C2O1` (stereo not given), the TGI in the experiment with ACHN renal, in the experiment with 786-0 renal, with SK-MEL-28 melanoma, in the experiment with OVCAR-5 ovarian, in the experiment on NCI-H23 lung and in the experiment with SNB-19 CNS was above 100 µM in each case. The TGI in the experiment with K-562 leukemia, with HOP-92 NSCLC, with RXF 393 renal and in the experiment on SF-268 CNS was above 100 µM throughout.
`c1ccc(CNc2c3c(nc4ccccc24)CCC3)cc1`: the TGI in the experiment with ACHN renal was 40.9 µM; with 786-0 renal, 28.5 µM; in the experiment on SK-MEL-28 melanoma, 24.3 µM; in the experiment with OVCAR-5 ovarian, 51.4 µM; in the experiment on NCI-H23 lung, 46.2 µM; with SNB-19 CNS, 67.7 µM. Also, the TGI in the experiment on K-562 leukemia came out at 26.2 µM; in the experiment on HOP-92 NSCLC it was 25.9 µM; with RXF 393 renal it was 30.4 µM; in the experiment with SF-268 CNS it was 46.6 µM.
